{"source": "patent US5358951A", "about": "“Angiotensin II receptor blocking 2, 3, 6 substituted quinazolinones” (American Cyanamid Company, priority 1993, dated 1994)", "tested_on": "vasopressor response of angiotensin II", "assay": "AII Challenge: antagonism of angiotensin II vasopressor response", "assay_type": "in vivo", "conditions": "for inhibition in vivo at 1 mg/kg / inhibition in vivo at 3 mg/kg: Rattus norvegicus; for inhibition in vivo at 1 mg/kg: iv; for inhibition in vivo at 3 mg/kg: po", "summary_of_the_method": "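Percent antagonism is based on the systolic blood pressure rise (mmHg) to i.v. angiotensin II at 0.05 and 0.1 ug/kg. Each rat's own predose response was taken as 100%. Challenges were repeated from 30 to 300 min after i.v., i.p. or oral compound in cannulated conscious male SHR, 16-20 weeks old.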", "data": [{"compound": "CCCCc1nc2ccc(C3(C(=O)OC)CC4CCCN4O3)cc2c(=O)n1Cc1ccc(-c2ccccc2-c2nnn[nH]2)cc1", "note": "(mixture of isomers) [Example 78, Trans(+/-)-Methyl-2-[2-butyl-3,4-dihydro-4-oxo-3-[[2'-(1H-tetrazol-5-yl)[1,1'-biphenyl]-4-yl]methyl-6-quinazolinyl]hexahydropyrrolo[1,2-b]isoxazole-2-carboxylate]", "values": [{"measurement": "Response Average Change", "setting": "1 mg/kg i.v., AII 0.05 mcg/kg IV, 30 min post dose", "result": 5, "unit": "mmHg"}, {"measurement": "Response Average Change", "setting": "1 mg/kg i.v., AII 0.05 mcg/kg IV, 60 min post dose", "result": 12.5, "unit": "mmHg"}, {"measurement": "Response Average Change", "setting": "1 mg/kg i.v., AII 0.05 mcg/kg IV, 90 min post dose", "result": 7.5, "unit": "mmHg"}, {"measurement": "Response Average Change", "setting": "1 mg/kg i.v., AII 0.05 mcg/kg IV, 120 min post dose", "result": 10, "unit": "mmHg"}, {"measurement": "Response Average Change", "setting": "1 mg/kg i.v., AII 0.05 mcg/kg IV, 180 min post dose", "result": 11, "unit": "mmHg"}, {"measurement": "Response Average Change", "setting": "1 mg/kg i.v., AII 0.05 mcg/kg IV, 240 min post dose", "result": 12.5, "unit": "mmHg"}, {"measurement": "Response Average Change", "setting": "1 mg/kg i.v., AII 0.05 mcg/kg IV, 300 min post dose", "result": 5, "unit": "mmHg"}, {"measurement": "Response Average Change", "setting": "1 mg/kg i.v., AII 0.1 mcg/kg IV, 30 min post dose", "result": 15, "unit": "mmHg"}, {"measurement": "Response Average Change", "setting": "1 mg/kg i.v., AII 0.1 mcg/kg IV, 60 min post dose", "result": 12.5, "unit": "mmHg"}, {"measurement": "Response Average Change", "setting": "1 mg/kg i.v., AII 0.1 mcg/kg IV, 90 min post dose", "result": 15, "unit": "mmHg"}, {"measurement": "Response Average Change", "setting": "1 mg/kg i.v., AII 0.1 mcg/kg IV, 120 min post dose", "result": 17.5, "unit": "mmHg"}, {"measurement": "Response Average Change", "setting": "1 mg/kg i.v., AII 0.1 mcg/kg IV, 180 min post dose", "result": 12.5, "unit": "mmHg"}, {"measurement": "Response Average Change", "setting": "1 mg/kg i.v., AII 0.1 mcg/kg IV, 240 min post dose", "result": 12.5, "unit": "mmHg"}, {"measurement": "Response Average Change", "setting": "1 mg/kg i.v., AII 0.1 mcg/kg IV, 300 min post dose", "result": 17.5, "unit": "mmHg"}, {"measurement": "Response Average Change", "setting": "3 mg/kg P.O., AII 0.05 mcg/kg IV, 30 min post dose", "result": 27.5, "unit": "mmHg"}, {"measurement": "Response Average Change", "setting": "3 mg/kg P.O., AII 0.05 mcg/kg IV, 60 min post dose", "result": 22.5, "unit": "mmHg"}, {"measurement": "Response Average Change", "setting": "3 mg/kg P.O., AII 0.05 mcg/kg IV, 90 min post dose", "result": 22.5, "unit": "mmHg"}, {"measurement": "Response Average Change", "setting": "3 mg/kg P.O., AII 0.05 mcg/kg IV, 120 min post dose", "result": 17.5, "unit": "mmHg"}, {"measurement": "Response Average Change", "setting": "3 mg/kg P.O., AII 0.05 mcg/kg IV, 180 min post dose", "result": 19, "unit": "mmHg"}, {"measurement": "Response Average Change", "setting": "3 mg/kg P.O., AII 0.05 mcg/kg IV, 240 min post dose", "result": 19, "unit": "mmHg"}, {"measurement": "Response Average Change", "setting": "3 mg/kg P.O., AII 0.05 mcg/kg IV, 300 min post dose", "result": 27.5, "unit": "mmHg"}, {"measurement": "Response Average Change", "setting": "3 mg/kg P.O., AII 0.1 mcg/kg IV, 30 min post dose", "result": 35, "unit": "mmHg"}, {"measurement": "Response Average Change", "setting": "3 mg/kg P.O., AII 0.1 mcg/kg IV, 60 min post dose", "result": 25, "unit": "mmHg"}, {"measurement": "Response Average Change", "setting": "3 mg/kg P.O., AII 0.1 mcg/kg IV, 90 min post dose", "result": 17.5, "unit": "mmHg"}, {"measurement": "Response Average Change", "setting": "3 mg/kg P.O., AII 0.1 mcg/kg IV, 120 min post dose", "result": 15, "unit": "mmHg"}, {"measurement": "Response Average Change", "setting": "3 mg/kg P.O., AII 0.1 mcg/kg IV, 180 min post dose", "result": 17.5, "unit": "mmHg"}, {"measurement": "Response Average Change", "setting": "3 mg/kg P.O., AII 0.1 mcg/kg IV, 240 min post dose", "result": 17.5, "unit": "mmHg"}, {"measurement": "Response Average Change", "setting": "3 mg/kg P.O., AII 0.1 mcg/kg IV, 300 min post dose", "result": 25, "unit": "mmHg"}, {"measurement": "inhibition in vivo at 1 mg/kg", "setting": "0.5 h, 1 mg/kg i.v., AII 0.05 mcg/kg IV, 30 min post dose", "result": 80, "unit": "%"}, {"measurement": "inhibition in vivo at 1 mg/kg", "setting": "0.5 h, 1 mg/kg i.v., AII 0.1 mcg/kg IV, 30 min post dose", "result": 45, "unit": "%"}, {"measurement": "inhibition in vivo at 1 mg/kg", "setting": "1 h, 1 mg/kg i.v., AII 0.05 mcg/kg IV, 60 min post dose", "result": 50, "unit": "%"}, {"measurement": "inhibition in vivo at 1 mg/kg", "setting": "1 h, 1 mg/kg i.v., AII 0.1 mcg/kg IV, 60 min post dose", "result": 55, "unit": "%"}, {"measurement": "inhibition in vivo at 1 mg/kg", "setting": "2 h, 1 mg/kg i.v., AII 0.05 mcg/kg IV, 120 min post dose", "result": 60, "unit": "%"}, {"measurement": "inhibition in vivo at 1 mg/kg", "setting": "2 h, 1 mg/kg i.v., AII 0.1 mcg/kg IV, 120 min post dose", "result": 36, "unit": "%"}, {"measurement": "inhibition in vivo at 1 mg/kg", "setting": "3 h, 1 mg/kg i.v., AII 0.05 mcg/kg IV, 180 min post dose", "result": 56, "unit": "%"}, {"measurement": "inhibition in vivo at 1 mg/kg", "setting": "3 h, 1 mg/kg i.v., AII 0.1 mcg/kg IV, 180 min post dose", "result": 55, "unit": "%"}, {"measurement": "inhibition in vivo at 1 mg/kg", "setting": "4 h, 1 mg/kg i.v., AII 0.05 mcg/kg IV, 240 min post dose", "result": 50, "unit": "%"}, {"measurement": "inhibition in vivo at 1 mg/kg", "setting": "4 h, 1 mg/kg i.v., AII 0.1 mcg/kg IV, 240 min post dose", "result": 55, "unit": "%"}, {"measurement": "inhibition in vivo at 1 mg/kg", "setting": "5 h, 1 mg/kg i.v., AII 0.05 mcg/kg IV, 300 min post dose", "result": 80, "unit": "%"}, {"measurement": "inhibition in vivo at 1 mg/kg", "setting": "5 h, 1 mg/kg i.v., AII 0.1 mcg/kg IV, 300 min post dose", "result": 36, "unit": "%"}, {"measurement": "inhibition in vivo at 1 mg/kg", "setting": "[…], 1 mg/kg i.v., AII 0.05 mcg/kg IV, 90 min post dose", "result": 70, "unit": "%"}, {"measurement": "inhibition in vivo at 1 mg/kg", "setting": "[…], 1 mg/kg i.v., AII 0.1 mcg/kg IV, 90 min post dose", "result": 45, "unit": "%"}, {"measurement": "inhibition in vivo at 3 mg/kg", "setting": "0.5 h, 3 mg/kg P.O., AII 0.05 mcg/kg IV, 30 min post dose", "result": 0, "unit": "%"}, {"measurement": "inhibition in vivo at 3 mg/kg", "setting": "0.5 h, 3 mg/kg P.O., AII 0.1 mcg/kg IV, 30 min post dose", "result": -17, "unit": "%"}, {"measurement": "inhibition in vivo at 3 mg/kg", "setting": "1 h, 3 mg/kg P.O., AII 0.05 mcg/kg IV, 60 min post dose", "result": 18, "unit": "%"}, {"measurement": "inhibition in vivo at 3 mg/kg", "setting": "1 h, 3 mg/kg P.O., AII 0.1 mcg/kg IV, 60 min post dose", "result": 17, "unit": "%"}, {"measurement": "inhibition in vivo at 3 mg/kg", "setting": "2 h, 3 mg/kg P.O., AII 0.05 mcg/kg IV, 120 min post dose", "result": 36, "unit": "%"}, {"measurement": "inhibition in vivo at 3 mg/kg", "setting": "2 h, 3 mg/kg P.O., AII 0.1 mcg/kg IV, 120 min post dose", "result": 50, "unit": "%"}, {"measurement": "inhibition in vivo at 3 mg/kg", "setting": "3 h, 3 mg/kg P.O., AII 0.05 mcg/kg IV, 180 min post dose", "result": 31, "unit": "%"}, {"measurement": "inhibition in vivo at 3 mg/kg", "setting": "3 h, 3 mg/kg P.O., AII 0.1 mcg/kg IV, 180 min post dose", "result": 42, "unit": "%"}, {"measurement": "inhibition in vivo at 3 mg/kg", "setting": "4 h, 3 mg/kg P.O., AII 0.05 mcg/kg IV, 240 min post dose", "result": 31, "unit": "%"}, {"measurement": "inhibition in vivo at 3 mg/kg", "setting": "4 h, 3 mg/kg P.O., AII 0.1 mcg/kg IV, 240 min post dose", "result": 42, "unit": "%"}, {"measurement": "inhibition in vivo at 3 mg/kg", "setting": "5 h, 3 mg/kg P.O., AII 0.05 mcg/kg IV, 300 min post dose", "result": 0, "unit": "%"}, {"measurement": "inhibition in vivo at 3 mg/kg", "setting": "5 h, 3 mg/kg P.O., AII 0.1 mcg/kg IV, 300 min post dose", "result": 17, "unit": "%"}, {"measurement": "inhibition in vivo at 3 mg/kg", "setting": "[…], 3 mg/kg P.O., AII 0.05 mcg/kg IV, 90 min post dose", "result": 18, "unit": "%"}, {"measurement": "inhibition in vivo at 3 mg/kg", "setting": "[…], 3 mg/kg P.O., AII 0.1 mcg/kg IV, 90 min post dose", "result": 42, "unit": "%"}]}]}
